In US6528685B2 (Teva Pharmaceutical Industries, Ltd., priority 1994, dated 2003):

What was measured:
[1] = system: rats; assay: Maximal electroshock (MES) model, rats; conditions: Rattus norvegicus, po, read-out: RATS MES 50
[2] = in vivo; conditions: mouse, in vivo, ip
Experimental: (§1) Neurotoxicity of the claimed agents was also assessed in mice (i.p. administration) by the rotorod ataxia test and/or in rats (p.o. administration) by positional sense test and gait stance test. […] The term quantitating the neurotoxicity is the medial neurological toxic dose (TD50), was determined in the above tests.

[3] = system: mice; assay: Maximal electroshock (MES) model, mice; conditions: Mus musculus, ip, read-out: MICE MES ED50
[4] = Neurotoxicity in rats, positional sense test and gait stance test; conditions: rat, in vivo, po
Experimental: as §1

[5] = system: hypoxic rat; assay: Amphetamine-induced stereotype behavior in hypoxic rat, Experiment 2A; assay type: in vivo; conditions: hypoxic group, with respect to hypoxia and amphetamine control
Experimental: (§2) Wistar male rats, 15-19 month-old, were exposed to a single hypoxic episode as described above. […] Rats pretreated for 29 days with daily doses of the test drugs (0.5 mg/kg), received a sub-cutaneous (s.c.) injection of D-amphetamine sulfate at a dose of 0.5 mg/kg. D-amphetamine is known to cause an enhancement of the effects of CNS dopamine by a mechanism involving dopamine release, and blockage of its uptake and its metabolism by MAO. The behavioral manifestation of amphetamine action is a stereotypic pattern of lateral head movements. Counts of lateral head movements were taken over two successive intervals of 1 min each, 45-60 min after the injection of amphetamine and then averaged.

[6] = system: hypoxia-lesioned rats; assay: Water maze working memory test, Experiment 3B; assay type: in vivo, rat; conditions: rat, in vivo
Excerpt: The apparatus used consists of a circular water tank 160 cm in diameter filled with water to a depth of 38 cm. The water was made cloudy by the addition of milk powder. A clear Plexiglass 15 cm platform, supported by a movable stand rest on the bottom of the tank was submerged to a depth of 2 cm from the water surface. Normally a swimming rat cannot perceive the location of the platform but it may recall it from a previous experience and training, unless it suffers from some memory impairment. The time taken to locate the platform is measured in seconds and referred to as the latency. During the experiment all orientational cues such as ceiling lights etc. remained unchanged. Longer latencies are observed with rats with some impairment to their memory.
Each rat was given two trails a day for four days, entering the pool from the same point of entry each day. The position of the platform was changed daily to one of four predetermined positions. Each rat was tested twice each day over the four days, referred to as runs 1 and 2 on sessions I-IV. Initially the rat was placed on the platform for 60 seconds. It was then removed and placed at the point of entry and allowed a maximum of 120 seconds to locate the platform (run 1). The second run for that day followed 60 seconds later (run 2). In the second run the rat is expected to find the platform much sooner, having benefitted from its earlier experience. […] The average latency of run 1 in four sessions on four different days was then related to the corresponding parameter of run 2. The smaller the ratio of […], the better the short range learning score.
Table 8. […] The data are the latencies in seconds±SEM that it took a given group to locate a submerged and invisible platform the location of which was shifted from one session to the other. The time interval between sessions was one day, and that between successive runs was 60 seconds. (n=7-8 rats per group)

[7] = system: hypoxic rat; assay: Passive avoidance test in hypoxic rat, Experiment 3A; assay type: in vivo; conditions: hypoxic rats
Experimental: Wistar male rats, 15-19 month-old, were exposed to a single hypoxic episode as described above. […] The passive avoidance test was performed on day 13 after initiation the drug treatment. The apparatus consisted of a lit chamber that can be separated from a dark chamber by a sliding door. At training, a rat is placed in the lit chamber for 30 seconds, then the door is opened. The rat moves to the dark chamber after a short delay—the latency, that is recorded. Upon entry into the dark chamber, the door is shut closed and a 0.3-mA footshock is delivered for 3 seconds by a Grass S-88 stimulator. Retention of the experience is determined after 48 hours by repeating the test and recording the latency to an arbitrary maximum of 300 seconds. Longer latencies are ascribed to retention of memory and improved cognition.

[8] = system: hypoxic rat; assay: Amphetamine-induced stereotype behavior in hypoxic rat, Experiment 2B; assay type: in vivo
Experimental: as §2
The procedure of the second Experiment 2B was similar to the one used in Experiment 2A with the following changes:
1) Animals: 12 month-old rats.
The drugs were given by i.p. injection.
3) Duration of the treatment: 14 days.

[9] = molecular target: T1, MAO-B (Rattus norvegicus, UniProt P19643); conditions: RAI: only chronic treatment; deprenyl: acute or chronic treatment
T1 sequence (P19643 1-520): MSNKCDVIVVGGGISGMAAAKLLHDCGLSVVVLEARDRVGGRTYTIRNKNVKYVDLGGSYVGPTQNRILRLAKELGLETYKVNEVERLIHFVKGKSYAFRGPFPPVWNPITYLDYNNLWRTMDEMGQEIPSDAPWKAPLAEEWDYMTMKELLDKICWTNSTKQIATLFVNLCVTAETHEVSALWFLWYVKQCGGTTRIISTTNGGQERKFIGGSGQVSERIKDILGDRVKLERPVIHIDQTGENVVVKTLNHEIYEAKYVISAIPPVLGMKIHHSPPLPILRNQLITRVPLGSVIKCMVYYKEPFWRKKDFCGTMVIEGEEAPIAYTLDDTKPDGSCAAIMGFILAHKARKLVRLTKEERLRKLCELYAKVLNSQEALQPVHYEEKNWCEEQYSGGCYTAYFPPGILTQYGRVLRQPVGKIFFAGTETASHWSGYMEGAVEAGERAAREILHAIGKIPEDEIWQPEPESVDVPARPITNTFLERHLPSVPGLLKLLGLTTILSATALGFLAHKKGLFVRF
Excerpt: (§3) The brains of some rats from each experimental group in Exp. 1 (chronic treatment of 80 days) and Exp. 2 (acute treatment of 14 days) were ex vivo analyzed for MAO-A and MAO-B activity.

[10] = molecular target: T2, MAO-A (Rattus norvegicus, UniProt P21396); conditions: chronic or acute treatment
T2 sequence (P21396 1-526): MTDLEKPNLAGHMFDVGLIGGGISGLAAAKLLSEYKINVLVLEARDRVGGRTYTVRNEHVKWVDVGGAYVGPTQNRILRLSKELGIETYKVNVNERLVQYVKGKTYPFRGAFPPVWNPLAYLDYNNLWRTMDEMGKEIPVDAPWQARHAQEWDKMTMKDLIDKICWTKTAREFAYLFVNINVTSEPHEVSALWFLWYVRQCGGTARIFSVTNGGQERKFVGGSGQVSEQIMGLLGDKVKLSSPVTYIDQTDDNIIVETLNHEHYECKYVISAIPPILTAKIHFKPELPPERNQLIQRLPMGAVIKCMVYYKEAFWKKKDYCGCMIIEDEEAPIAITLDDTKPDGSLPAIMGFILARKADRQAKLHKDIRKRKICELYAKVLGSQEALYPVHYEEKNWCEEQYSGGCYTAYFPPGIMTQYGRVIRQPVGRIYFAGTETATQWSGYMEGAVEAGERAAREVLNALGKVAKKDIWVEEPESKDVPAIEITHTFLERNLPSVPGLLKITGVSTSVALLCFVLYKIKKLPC
Excerpt: as §3

[11] = system: rats; assay: Closed head injury in rats, Experiment 4D (times of administration); assay type: in vivo, rat; conditions: RAI 1 mg/kg; times of administration: 0, 4, 8, 12 h
Experimental: (§4) After the second evaluation of motor function, the animals were sacrificed and the brains were removed. A piece of tissue was weighed to yield a wet weight (WW), then dried in an oven for 24 hours at 95 C. and re-weighed to yield a dry weight(DW). Percentage water content in the tissue was calculated as (WW-DW)×100/WW.

[12] = system: rats; assay: Closed head injury in rats, Experiment 4C (dose range); assay type: in vivo, rat; conditions: doses 0.03 mg/kg to 3 mg/kg
Experimental: as §4

[13] = system: hypoxic rat; assay: α-MpT-induced hypokinesia in hypoxic rat, Experiment 1A; assay type: in vivo; conditions: hypoxia group, ten hour observation
Experimental: Wistar male rats, 15-19 month-old, were exposed to a single hypoxic episode which is assumed to decrease the level of dopamine in the brain. […] The drugs were administered by gavage, using a special syringe equipped with rounded tip that could be directed into the stomach. The dose was contained in 0.3-0.5 mL of distilled water. The rats were pretreated for 70-80 days with daily doses of the test drugs and received intra-peritoneal (i.p.) α-MpT (α-methyl-p-tyrosine) at a dose of 100 mg/kg in 0.3-0.5 mL saline. Controls received saline. α-MpT is assumed to inhibit the formation of L-Dopa from tyrosine and, consequently the formation of dopamine itself. Lack of central dopamine is expressed as hypokinesia. Following the injection of α-MpT, motor activity was recorded for the duration of 10 hours. Locomotion scores were taken in seven fully-computerized cages (26×25 cm) having a grid of infra-red beams at 4 cm-intervals.
Crossing of a beam initiated an electric signal which was fed into a computer. The number of crossings over a given period provided a measure of locomotion.
The records gave two data categories: (a) “small movements” originating in stationary activities such as grooming and scratching and (b) “big movements” originating in ambulation and recorded as the simultaneous crossing of more than two beams. “Total movements” include both categories.
Counts of motor activity in the presence of α-MpT were related as percent with respect to counts in its absence in the corresponding control group (unlesioned or hypoxia-lesioned). Motor activity counts of drug-treated rats were related to the hypoxia saline-treated as 100%. All behavioral tests were performed 90-120 min. after administration of the last dose of the test compound.

[14] = system: rats; assay: Closed head injury in rats, Experiment 4E (therapeutic window); assay type: in vivo, rat; conditions: 1 mg/kg
Experimental: as §4

SMILES	melting point [°C]	ED50 [1] [mg/kg]	TD50 [2] [mg/kg]	ED50 [3] [mg/kg]	TD50 [4] [mg/kg]	potentiation of stereotypic behavior induced by amphetamine, in words [5]	water maze performance versus hypoxia group, in words [6]	passive avoidance performance, in words [7]	potentiation of stereotypic behavior (lateral head movements), in words [8]	effect on MAO-B activity, in words [9]	effect on MAO-A activity, in words [10]	% water in the brain [11] [%]	dose at which a maximal response was observed [12] [mg/kg]	effect on hypokinetic syndrome, big movements, in words [13]	effectiveness when given after induction of head trauma, in words [14]
CC(=O)NC1CCc2ccc(F)cc21 (racemic) [Compound 22, (rac)-6-Fluoro-N-acetyl-1-aminoindan]	139 to 141	< 50	> 100	< 100	> 50										
N[C@@H]1CCc2ccccc21 [R-AI, (R)-1-aminoindan]						significant potentiation	tended towards superior performance	improved their performance to control level	significant potentiation	can partially inhibit	does not have an effect on MAO-A activity	81.5 ± 0.5	0.3	corrected the hypokinetic syndrome	still effective even if given 3 hours after the induction of head trauma
